pIC50: −log10 of the molar value. Read-outs that look alike come from different tables or passages of the source.
Experiments:
[1] = target: T1, dopamine uptake, synaptosomes from rat caudoputamen (Rattus norvegicus, UniProt P23977); assay: In vitro synaptosomal [3H]-dopamine uptake; assay type: biochemical; details: for pIC50: rat caudoputamen synaptosomes
T1 construct: Synaptosomes for use in obtaining in vitro uptake data were prepared from hypothalamus or striatum by gently homogenizing the tissue; from tissue; host or cells: rat caudoputamen (striatum) synaptosomes
From the text: (§1) Similarities and differences. Molecular Pharmacology, 21: p.

[2] = target: T2, noradrenaline (NA) uptake, synaptosomes from rat hypothalamus (Rattus norvegicus, UniProt Q63380); assay: In vitro synaptosomal [3H]-noradrenaline uptake; assay type: biochemical; details: for pIC50: rat hypothalamus synaptosomes
T2 construct: Synaptosomes for use in obtaining in vitro uptake data were prepared from hypothalamus or striatum by gently homogenizing the tissue; from tissue; host or cells: rat hypothalamus synaptosomes
From the text: as §1

[3] = tested on: TBZ-induced behavioural depression; assay: Tetrabenazine-induced behavioural depression; assay type: in vivo, Male, CD-1 Mice; details: for effect on tetrabenazine-induced behavioural depression: 25 mg/kg (ip), FIG. 1; for dose-effect against TBZ-induced depression: 30 minutes prior to TBZ, n=6, FIGS. 2 and 3
Description: FIG. 2. Dose Response of Compound of Formula I Against TBZ-Induced Depression (Compounds administered 30 minutes prior to TBZ, Male, CD-1 Mice, i.p., n=6).
FIG. 3. Dose Response of Compound of Formula II Against TBZ-Induced Depression (Compounds administered 30 minutes prior to TBZ, Male, CD-1 Mice, i.p., n=6).
Tetrabenazine(TBZ)-induced behavioural depression was used as an in vivo measure of antidepressant activity. The test has been validated with a wide range of antidepressants, known to act through noradrenergic mechanisms (Cooper B. R. et al, “Animal models used in the prediction of antidepressant effects in man”, J. Clin. Psychiatry 44: 63–66, 1983). Moreover, the test was also used to identify Wellbutrin® as an anti-depressant. Briefly, animals were injected with the candidate agent (p.o. or i.p.) 30 minutes before receiving an i.p. injection of tetrabenazine (35 mg/kg, as the HCl salt—prepared fresh for each use). Assessments were performed 30 minutes thereafter and included: locomotor activity (1–4 scale); ptosis (1–4 scale) and body temperature as described previously (Cooper, B. R., J. L. Howard, and F. E. Soroko, Animal models used in prediction of antidepressant effects in man (Journal of Clinical Psychiatry, 44: p. 63–6, 1983). In all studies, the scientist performing the assessments was blind to the treatments. All parameters were weighted equally to give a “lumped” score (X) through the following algorithm: X=(1+Ptosis score)/(Activity score*[Temp,treated/Temp,control]

[4] = tested on: MPTP-induced Parkinsonian marmosets; assay: MPTP-treatment Parkinson's disease model; assay type: in vivo; details: hydrochloride salt, once weekly by oral gavage, MPTP-treated marmosets
Description: Locomotor deficits and motor disability were induced in marmosets by the administration of MPTP 2 mg/kg sc on five consecutive days. After the acute effects of MPTP administration had been overcome, bradykinesia, rigidity and loss of vocalisation remained. The compound of formula (I) (as its hydrochloride salt) was administered once weekly by oral gavage, freshly dissolved in 10% sucrose solution with dosages calculated as the free base. […] Assessment of motor disablities was by an observer through a one-way mirror: alertness, checking movements, posture, balance/co-ordination, reaction, vocalisation and motility were each scored. A score of zero indicated a “normally” behaing animal, while a maximum total score of 18 in the monitoring period indicated a severely disabled animal.

[5] = tested on: CCI-induced decrease in mechanical paw withdrawal threshold; assay: Chronic constriction injury model of mononeuropathy; assay type: in vivo, male Random Hooded rats; details: CCI rats, FIG. 6
From the text: Mononeuropathy was reproduced in male Random Hooded rats (180–250 g) using the Chronic Constriction Injury (CCI) model as described by Bennett and Xie (1988). Under Isoflurane anaesthesia, the common left sciatic nerve of the rats was exposed at mid thigh level. Four ligatures of Chromic gut (4.0) were tied loosely around the nerve with a 1 mm spacing between each. The wound was then closed and secured with suture staples. The surgical procedure was identical for the sham operated animals except the sciatic nerve was not ligated. The animals were allowed a period of 12 days to recover from the surgery before any behavioural testing began.
The effect of the compound of formula (I) (administered as the hydrochloride salt at 20 mgkg^−1 t.i.d. p.o. chronically for a period of 7 days) on CCI-induced decrease in mechanical paw withdrawal threshold was measured using an algesymeter (Randall & Selitto, 1957).

[6] = tested on: sexual behaviour of male mice; assay: Mouse sexual behaviour model; assay type: in vivo, mice (C57BL/6 inbred strain); details: hydrochloride salt
Description: Male (10 weeks old) and female (8 weeks old) mice (C57BL/6 inbred strain, Charles River, Como (Italy) that had no reproductive or copulatory experience were used in the study. Females were brought into behavioral oestrus with s.c. injections of 0.03 mg estradiol benzoate approximately 48 hr before testing and 0.1 mg progesterone, in sesame oil, 4 hr before testing.
The compound of formula (I) (as its hydrochloride salt) was dissolved in saline to provide a solution for intraperitoneal injection at a dose of 3 mg/kg, with a dose volume of 10 ml/kg. Dosing was performed one hour prior to the test.
Tests were conducted in Perspex arenas, 30 cm in diameter and 50 cm high, which were placed in the cage in which males had been placed individually one day prior to test. The sexual behaviour was filmed remotely under red light for 30 min using a video camera and recorder, the test starting immediately after placing a female mouse into the male's cage. Behavior parameters recorded were (i) the extent of male/female interaction, (ii) the extent of genital sniffing, and (iii) the mount frequency (the number of male mounts).

[7] = Dose-ranging safety study: serious adverse events (seizures and deaths); assay type: in vivo; details: for seizures observed, in words: 100 mg/kg p.o.
Description: Additional dose-ranging studies were performed to determine the range of safe doses for the isomers and the racemate. […]

[8] = target: T3, serotonin uptake, synaptosomes from rat hypothalamus (Rattus norvegicus, UniProt P31652); details: at 30 mM (so in the source)
Description: (§2) In vitro uptake was determined, as reported previously, using synaptosomes prepared from rat caudoputamen (for dopamine uptake) and hypothalamus (for NA and serotonin uptake) using [^3H]-dopamine, [^3H]-NA and [^3H]-serotonin as transport substrates, respectively.
(§3) Synaptosomes for use in obtaining in vitro uptake data were prepared from hypothalamus or striatum by gently homogenizing the tissue in a 0.3 M sucrose/25 mM Tris pH 7.4 buffer containing iproniazid phosphate to inhibit monoamine oxidase. The homogenate was centrifuged at 1100×g at 4° C. for 10 min and the supernatant was used for uptake studies. […] Under these conditions uptake was linear with respect to both for substrate and tissue (with <5% total substrate transported). Non-specific uptake was defined as uptake at 0° C. [^3H]-substrate, which had been transported into synaptosomes, was separated from free [^3H]-substrate by filtration over GF/B filters and washing with cold Krebs-Henseleit buffer. The filters were counted for tritum in a liquid scintillation spectrometer.

[9] = target: T3, serotonin uptake, synaptosomes from rat hypothalamus; assay: biochemical
Description: as §2, §3

[10] = read-out: IC50, [3H]-Dopamine Uptake
[11] = 3 mg/kg intraperitoneal, one hour prior to 30 min test
[12] = intraperitoneal injection, versus control

T1 sequence (P23977 whole entry): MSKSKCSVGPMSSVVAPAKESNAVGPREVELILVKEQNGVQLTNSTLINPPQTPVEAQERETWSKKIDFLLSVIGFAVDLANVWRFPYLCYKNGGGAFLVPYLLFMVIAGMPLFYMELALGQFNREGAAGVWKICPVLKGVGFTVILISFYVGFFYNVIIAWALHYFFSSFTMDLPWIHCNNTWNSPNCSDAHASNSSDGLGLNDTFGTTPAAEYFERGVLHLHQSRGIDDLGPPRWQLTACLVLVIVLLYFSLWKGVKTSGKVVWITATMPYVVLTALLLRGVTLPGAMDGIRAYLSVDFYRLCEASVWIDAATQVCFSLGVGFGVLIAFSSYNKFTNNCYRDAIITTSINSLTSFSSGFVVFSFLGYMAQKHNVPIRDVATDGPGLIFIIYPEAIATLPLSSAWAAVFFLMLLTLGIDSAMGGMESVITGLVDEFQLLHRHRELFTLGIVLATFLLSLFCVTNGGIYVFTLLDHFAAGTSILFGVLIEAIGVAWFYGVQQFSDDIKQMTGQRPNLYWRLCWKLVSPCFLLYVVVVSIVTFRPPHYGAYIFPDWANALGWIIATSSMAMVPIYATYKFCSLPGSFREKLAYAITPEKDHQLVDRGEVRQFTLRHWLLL
T2 sequence (Q63380 1-617): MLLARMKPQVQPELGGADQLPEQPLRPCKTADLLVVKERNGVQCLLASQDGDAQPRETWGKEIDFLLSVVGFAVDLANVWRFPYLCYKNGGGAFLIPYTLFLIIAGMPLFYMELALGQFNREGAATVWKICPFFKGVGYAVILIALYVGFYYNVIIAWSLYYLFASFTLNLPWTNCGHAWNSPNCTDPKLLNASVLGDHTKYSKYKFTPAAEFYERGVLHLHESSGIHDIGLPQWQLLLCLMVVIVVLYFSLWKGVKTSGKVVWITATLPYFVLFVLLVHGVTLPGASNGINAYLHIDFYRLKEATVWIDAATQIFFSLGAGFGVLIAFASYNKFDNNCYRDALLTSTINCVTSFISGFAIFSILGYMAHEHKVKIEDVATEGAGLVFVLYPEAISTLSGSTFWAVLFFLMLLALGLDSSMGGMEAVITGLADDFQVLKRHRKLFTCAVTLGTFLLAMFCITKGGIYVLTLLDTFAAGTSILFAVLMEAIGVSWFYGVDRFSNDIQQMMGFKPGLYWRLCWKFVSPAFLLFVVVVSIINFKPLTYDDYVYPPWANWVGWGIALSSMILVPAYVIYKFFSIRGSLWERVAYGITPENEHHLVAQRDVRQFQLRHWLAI
T3 sequence (P31652 whole entry): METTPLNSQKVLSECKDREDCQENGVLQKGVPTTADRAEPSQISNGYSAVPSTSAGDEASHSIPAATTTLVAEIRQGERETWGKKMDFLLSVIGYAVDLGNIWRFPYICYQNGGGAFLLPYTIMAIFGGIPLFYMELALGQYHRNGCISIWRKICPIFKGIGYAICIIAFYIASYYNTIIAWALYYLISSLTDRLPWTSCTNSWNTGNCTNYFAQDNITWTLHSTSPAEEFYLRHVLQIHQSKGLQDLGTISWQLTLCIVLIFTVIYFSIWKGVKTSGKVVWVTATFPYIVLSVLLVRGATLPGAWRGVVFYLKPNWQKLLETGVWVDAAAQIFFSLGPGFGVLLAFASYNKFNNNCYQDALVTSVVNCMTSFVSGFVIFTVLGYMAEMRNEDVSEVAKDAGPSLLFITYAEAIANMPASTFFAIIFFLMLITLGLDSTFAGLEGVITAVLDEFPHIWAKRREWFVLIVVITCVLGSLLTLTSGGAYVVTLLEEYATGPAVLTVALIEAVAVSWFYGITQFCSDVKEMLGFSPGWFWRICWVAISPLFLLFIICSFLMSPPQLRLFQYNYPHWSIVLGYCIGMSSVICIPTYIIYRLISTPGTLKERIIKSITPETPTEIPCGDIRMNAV

Structure (SMILES)	pIC50 [1, 10]	pIC50 [2]	effect on tetrabenazine-induced behavioural depression [3]	dose-effect against TBZ-induced depression ([3]; i.p.)	% Died ([7]; i.p., 100 mg/kg) [%]	Seizures (%) ([7]; i.p., 100 mg/kg)	Time to Seizures ([7]; i.p., 100 mg/kg) [min]	% Died ([7]; i.p., 300 mg/kg) [%]	Seizures (%) ([7]; i.p., 300 mg/kg)	Time to Death ([7]; i.p., 300 mg/kg) [min]	Time to Seizures ([7]; i.p., 300 mg/kg) [min]	% Died ([7]; p.o., 100 mg/kg) [%]	Seizures (%) ([7]; p.o., 100 mg/kg)	% Died ([7]; p.o., 300 mg/kg) [%]	Seizures (%) ([7]; p.o., 300 mg/kg)	Time to Seizures ([7]; p.o., 300 mg/kg) [min]	inhibition of serotonin uptake at a fixed concentration [8]	pIC50 [9]	seizures observed, in words [7]	Time to Death ([7]; i.p., 100 mg/kg) [min]	further results
CC(NC(C)(C)C)C(=O)c1cccc(Cl)c1.Cl (racemic) [Bupropion, (±)-1-(3-chlorophenyl)-2-[(1,1-dimethylethyl)amino]-1-propanone hydrochloride]	5.72	5.66	abolished the tetrabenazine-induced behavioural depression	–	–	–	–	–	–	–	–	–	–	–	–	–	–	–	–	–	–
CC1NC(C)(C)COC1(O)c1cccc(Cl)c1 (stereo not drawn) [Racemate, (+/−)-(2R*,3R*)-2-(3-chlorophenyl)-3,5,5-trimethyl-2-morpholinol]	–	–	abolished the tetrabenazine-induced behavioural depression	–	–	–	–	–	–	–	–	–	–	–	–	–	–	–	–	–	–
C[C@@H]1NC(C)(C)CO[C@@]1(O)c1cccc(Cl)c1 (single isomer, unassigned) [Formula (I)]	5.03	–	abolished the tetrabenazine-induced behavioural depression	sharp increase in activity between 3 mg/kg and 6 mg/kg	0	100	3.93	100	100	6	3.95	0	0	0	100	11.23	Neither compound inhibited serotonin uptake	< 4.52	–	–	pIC50 ([1]; IC50, [3H]-Dopamine Uptake): ~5.00; potency as inhibitor of dopamine uptake, fold less potent ([1]; unlike Wellbutrin, comparison as worded): approximately 10 fold; potency as NA inhibitor relative to Wellbutrin ([2]; versus Wellbutrin): approximately twice as potent; locomotor deficits ([4]; FIG. 4): reversed the locomotor deficits; motor disability ([4]; FIG. 5): reversed; mechanical paw withdrawal threshold on cessation of treatment ([5]; after 20 mgkg−1 t.i.d. p.o. for 7 days): falling back towards CCI-operated vehicle-treated levels; mechanical paw withdrawal threshold during chronic dosing ([5]; hydrochloride salt, 20 mgkg−1 t.i.d. p.o. for 7 days): reversal was maintained throughout the chronic dosing period; mechanical paw withdrawal threshold after a single dose ([5]; hydrochloride salt, single dose 20 mgkg−1 p.o.): immediate reversal of the fall in paw withdrawal threshold back towards sham operated levels; M/F interaction [6, 11]: *228.8 ± 30.3 sec; Mount frequency, No. of events ± SEM [6, 11]: 6.6 ± 1.7; Time spent in genital sniffing [6, 11]: *203.6 ± 30.1 sec; genital sniffing, change in words [6, 12]: statistically significant (unpaired t-test) increase; male/female interaction, change in words [6, 12]: statistically significant (unpaired t-test) increase; mount frequency, change in words [6, 12]: trend towards increasing mount frequency; % Died ([7]; i.p., 100 mg/kg, listed as compound of formula I): No deaths were observed; % Died ([7]; p.o., 300 mg/kg, listed as compound of formula I): no deaths were observed
CC1NC(C)(C)COC1(O)c1cccc(Cl)c1.Cl (racemic) [Racemate, (+/−)-(2R*,3R*)-2-(3-chlorophenyl)-3,5,5-trimethyl-2-morpholinol]	–	–	–	–	20	100	3	100	100	3	3	0	100	80	100	6.8	–	–	seizures were observed	14	Time to Seizures ([7]; p.o., 100 mg/kg): 9.2 min; Time to Death ([7]; p.o., 300 mg/kg): 7 min
C[C@H]1NC(C)(C)CO[C@]1(O)c1cccc(Cl)c1 (single isomer, unassigned) [Formula (II)]	< 4.00	< 4.52	only modest activity	did not possess dose-related activity	100	20	5	100	100	6	1.1	0	100	100	100	6.8	Neither compound inhibited serotonin uptake	< 4.00	seizures were observed	7	inhibition of dopamine (DA) uptake at a fixed concentration ([1]; at 30 μM): inactive; inhibition of noradrenaline (NA) uptake at a fixed concentration ([2]; at a concentration of 30 μM): ineffective; effect on TBZ-induced depression at the top dose ([3]; 50 mg/kg, i.p., FIG. 3): appeared to worsen the animal's condition; Time to Seizures ([7]; p.o., 100 mg/kg): 7.2 min; Time to Death ([7]; p.o., 300 mg/kg): 7 min
CN(C)CCC=C1c2ccccc2CCc2ccccc21 [amitryptyline]	–	–	abolished the tetrabenazine-induced behavioural depression	–	–	–	–	–	–	–	–	–	–	–	–	–	–	–	–	–	–
